According to US20060122165A1, “Crystalline cefdinir” (priority 2004, published 2006):

Tests used:
[1] = stability of crystalline form at environmental relative humidity; format: physicochemical; settings: form maintained as trihydrate
[2] = conversion of crystalline form B into form C on exposure to humidity or aqueous medium; format: physicochemical
Description: In another aspect of the invention, crystalline form C of cefdinir can be obtained by conversion of the crystalline form B of cefdinir, obtainable as described in US 2003/0204082 in Example 1, into crystalline form C of cefdinir. Cefdinir form B is in the form of a hydrate.
The equilibrating procedure of step a′) is preferably performed at a relative humidity of about 63% to about 75% , more preferably of about 65% to about 70%, such as of at 65% to 70%. Said equilibration may be performed in a gaseous atmosphere being e.g. air or nitrogen, preferably air having the above mentioned relative humidity. Above about 63% relative humidity, for example cefdinir form B crystals obtainable as described above convert to form C crystals. Form C crystals—once formed—are stable above a relative humidity of at least 45%.

SMILES | relative humidity of environmental conditions at which the crystal form is stable [1] | relative humidity above which crystals convert to form C ([2]; equilibration in gaseous atmosphere (air or nitrogen)) | time for conversion into crystalline form C ([2]; exposure of pure crystalline form B to a relative humidity of at least about 65%) | time for conversion into crystalline form C ([2]; exposure of pure form B crystals to an aqueous suspending medium, preferably water)
C=CC1=C(C(=O)O)N2C(=O)C(NC(=O)C(=NO)c3csc(N)n3)[C@H]2SC1.O.O.O (stereo partly shown) [crystalline form C of cefdinir, 7-[2-(2-aminothiazol-4-yl)-2-hydroxyiminoacetamido]-3-vinyl-3-cephem-4-carboxylic acid trihydrate] | at least 45% |  |  | 
C=CC1=C(C(=O)O)N2C(=O)C(NC(=O)C(=NO)c3csc(N)n3)[C@H]2SC1 (stereo partly shown) [crystalline form B of cefdinir, 7-[2-(2-aminothiazol-4-yl)-2-hydroxyiminoacetamido]-3-vinyl-3-cephem-4-carboxylic acid] |  | Above 63% | within minutes | within seconds
